Reference: patent US20080139457A1, “Therapeutic compositions comprising chorionic gonadotropins and HMG CoA reductase inhibitors” (Virginia Commonwealth University, priority 2005, published 2008)
“Also recorded” adds a separate entry of the source.

Experiments:
[1] = tested on: ERK½, JNK½, AKT (S473); assay: Immunoblotting of phosphorylation status of ERK½, JNK½, AKT in LNCaP cells; type: cell-based, human; settings: for effect on hCG-induced ERK½ activation: pertussis toxin 300 ng/ml, AG1478 1 μM or GM6001 1 μM, 30 min after hCG 2 mU/ml
Experimental: SDS-PAGE and Immunoblotting. The cells were plated at 5×10^5 cells/cm^2 and treated with drugs at the indicated concentrations and after the indicated time of treatment, lysed in whole-cell lysis buffer (0.5 M Tris-HCl, pH 6.8, 2% SDS, 10% glycerol, 1% β-mercaptoethanol, 0.02% bromophenol blue), and the samples were boiled for 30 minutes. The boiled samples were loaded onto 10-14% SDS-PAGE and electrophoresis was run overnight. Proteins were electrophoretically transferred onto 0.22 μm nitrocellulose, and immunoblotted with various primary antibodies against different proteins. All immunoblots were visualized by enhanced chemiluminescence (ECL).
(§1) (1) LNCaP cells were cultured as described above. […] 0-6 hours after treatment, the cells were isolated, lysed in SDS PAGE sample buffer and equal protein concentrations subjected to SDS PAGE followed by immunoblotting to determine the phosphorylation status (activity status) of ERK½, JNK½, AKT (S473) and the expression level of ERK2 protein.
(§2) (2) LNCaP cells were cultured as described above. 12 hours after plating, the cells were treated with vehicle (VEH, PBS) or pertussis toxin (300 ng/ml). 23 hours after plating cells were treated with vehicle (VEH, DMSO) or the ERBB1 inhibitor AG1478 (1 μM).
(4) LNCaP cells were cultured as described above. […] Thirty minutes after irradiation the cells were isolated, lysed in SDS PAGE sample buffer and equal protein concentrations subjected to SDS PAGE followed by immunoblotting to determine the phosphorylation status (activity status) of ERK½ and ERBB1 Y1068 and the expression levels of ERBB1 and ERK2 proteins.
as §1, with “LNCaP” for “(1) LNCaP”, “At the indicated times” for “0-6 hours”, “treatment (12-96 h),” for “treatment,”

[2] = tested on: PARP1; assay: PARP1 ADP-ribosylation status (immunoblot) in LNCaP cells; type: cell-based, human; settings: AG1478 5 minutes after or 30 minutes before radiation; hCG 2 mU/ml, 4 Gy
Experimental: (§3) SDS-PAGE and Immunoblotting. The cells were plated at 5×10^5 cells/cm^2 and treated with drugs at the indicated concentrations and after the indicated time of treatment, lysed in whole-cell lysis buffer (0.5 M Tris-HCl, pH 6.8, 2% SDS, 10% glycerol, 1% β-mercaptoethanol, 0.02% bromophenol blue), and the samples were boiled for 30 minutes. […] All immunoblots were visualized by enhanced chemiluminescence (ECL).
(§4) LNCaP cells were cultured as described above.
as §4

[3] = tested on: ERBB1; assay: Immunoblotting of ERBB1 phosphorylation in LNCaP cells; type: cell-based, human; settings: for effect on hCG-induced ERBB1 Y1173 phosphorylation: AG1478 1 μM, pertussis toxin 300 ng/ml, PD184352 1 μM or GM6001 1 μM, 30 min after hCG 2 mU/ml
Experimental: as §3, §2
(3) LNCaP cells were cultured as described above.
(4) LNCaP cells were cultured as described above.

[4] = tested on: LNCaP cells; assay: Apoptosis assay in LNCaP cells (trypan blue exclusion); type: cell-based, human; settings: for effect of inhibitor on cell viability / hCG lethality: LY294002 10 μM or AG1478 1 μM 30 min before hCG 2 mU/ml
Experimental: Cell culture. Human prostate cells (PC3 and LCNaP) were purchased from the ATCC were cultured at 37° C. (5% (v/v CO2) in vitro using RPMI supplemented with 10% (v/v) fetal calf serum.
LNCaP cells were cultured as described above. […] The cells were isolated by trypsinization 96 hours after irradiation. The attached and floating cells were combined, and cell viability was determined by trypan blue exclusion assays using a light microscope (*p<0.05 value greater than corresponding vehicle/irradiated+vehicle value; n=3 per data point ±SEM from 3 studies).
LNCaP cells were cultured as described above. […] Caspase inhibitors were re-supplemented every 24 hours. After 96 hours of culture, cell viability numbers were determined MTT assays using a plate reader. The cells were isolated 96 hours after irradiation by trypsinization, the attached and floating cells combined, and cell viability determine by trypan blue exclusion assays using a light microscope.
(2) LNCaP cells were cultured as described above. […] Cells were isolated 96 h after irradiation by trypsinization, the attached and floating cells combined, and cell viability determine by trypan blue exclusion assays using a light microscope.
LNCaP cells were cultured as described above. […] Cells were isolated 96 hours after irradiation by trypsinization, the attached and floating cells combined, and cell viability determine by trypan blue exclusion assays using a light microscope. Cells were then lysed in SDS PAGE sample buffer and equal protein concentrations subjected to SDS PAGE followed by immunoblotting to determine the PARP1 ADP-ribosylation status (activity status) in the presence or absence of PJ-34.
LNCaP cells were cultured as described in Example 1. Twelve hours after plating the cells were transfected using Lipofectamine with either a scrambled siRNA (SCR) or with siRNA molecules to suppress PARP1 or AIF expression (siPARP; siAIF; 10 nM each). […] Cells were isolated 96 hours after irradiation by trypsinization, the attached and floating cells combined, and cell viability determine by trypan blue exclusion assays using a light microscope. Cells were then lysed in SDS PAGE sample buffer and equal protein concentrations subjected to SDS PAGE followed by immunoblotting to determine PARP1 and AIF expression in the presence or absence of siPARP and siAIF, siRNA molecules, respectively. PARP-induced cell death has been linked by some groups to the cytotoxic actions of AIF.
Apoptosis assay. LNCaP cells were cultured as described above. […] Cells were isolated by trypsinization 96 hours after irradiation, the attached and floating cells combined, and cell viability determine by trypan blue exclusion assays using a light microscope.
LNCaP cells were cultured as described above. […] Cells were isolated 96 hours after irradiation by trypsinization, the attached and floating cells combined, and cell viability determine by trypan blue exclusion assays using a light microscope.
LNCaP cells were cultured as described above. Twenty three hours after plating, cells were treated with either the control, vehicle (VEH, DMSO), or farnesyl pyrophosphate (FPP; 1 μM) or geranylgeranyl pyrophosphate (GGPP, 1 μM). […] In some cells the statin may enhance the effects of the chorionic gonadotropin by blocking farnesylation in which case the use of a farnesyl transferase inhibitor will be of further use.
Apoptosis assay in LNCaP Cells. (1) LNCaP cells were cultured as described above. Twelve hours after plating, cells were infected with either empty vector virus (CMV) or with viruses to express dominant negative AKT, dominant negative MEK1, dominant negative IkB, constitutively active AKT, and constitutively active MEK1 at a multiplicity of infection (m.o.i.) of 25. In other parallel plates of cells, 24 h after plating, cells were pretreated 30 minutes prior to any additional manipulation with either vehicle (VEH, DMSO) or a JNK½ inhibitory peptide (JNK-IP, 10 μM).

[5] = tested on: LNCaP cells; assay: Cell survival (colony formation) assay in LNCaP cells; type: cell-based, human; settings: AG1478 1 μM removed 96 h after hCG 2 mU/ml and 4 Gy; 28 days
Experimental: as §4
Apoptosis Assay. LNCaP cells were cultured as described above.
as §4

[6] = cited from earlier work
[7] = tested on: LNCaP cells; assay: MTT cell growth assay in LNCaP cells; type: cell-based, human; settings: caspase inhibitor 50 μM, radiation 4 Gy, 96 h
Experimental: LNCaP cells were cultured as described above. […] Caspase inhibitors were re-supplemented every 24 hours. After 96 hours of culture, cell viability numbers were determined MTT assays using a plate reader.

COc1cc2ncnc(Nc3cccc(Cl)c3)c2cc1OC [AG1478]
effect on hCG-induced ERK½ activation [1]: blocked hCG-induced ERK½ activation
effect on PARP activation by combined hCG and radiation [2]: abolished the profound activation of PARP caused by combined hCG and radiation treatment
effect on hCG-induced ERBB1 Y1173 phosphorylation [3]: blocked
effect of inhibitor on cell viability / hCG lethality ([4]; 96 h): did not significantly alter cell viability following hCG exposure
effect of ERBB1 inhibition on cell killing by hCG and radiation (colony formation) [5]: prevented the greater than additive induction of cell killing caused by combined hCG and radiation exposure

CC(C)=CCC/C(C)=C/CC/C(C)=C/CC/C(C)=C/COP(=O)(O)OP(=O)(O)O [GGPP, geranylgeranyl pyrophosphate]
effect on the lethal interaction between hCG and lovastatin ([4]; FPP 1 μM or GGPP 1 μM, lovastatin 0.6 μM, hCG 2 mU/ml, 96 h): abolished the lethal interaction between hCG and lovastatin

COC(=O)[C@H](CC(C)C)NC(=O)c1ccc(NC[C@@H](N)CS)cc1-c1ccccc1 [GGTI-286]
cell killing with hCG when used in place of lovastatin ([4]; GGTI-286 10 μM with hCG): Identical data LNCaP cell killing data for hCG and lovastatin exposure were obtained

CNC(=O)[C@H](Cc1c[nH]c2ccccc12)NC(=O)[C@@H](CC(=O)NO)CC(C)C [GM6001]
effect on hCG-induced ERK½ activation [1]: abolisged ERBB1 Y1173 phosphorylation and ERK½ activation
effect on hCG-induced ERBB1 Y1173 phosphorylation [3]: abolisged ERBB1 Y1173 phosphorylation

Cl.O=c1cc(N2CCOCC2)oc2c(-c3ccccc3)cccc12 [LY294002, 2-(4-Morpholinyl)-8-phenyl-4H-1-benzopyran-4-one hydrochloride]
effect of inhibitor on cell viability / hCG lethality ([4]; 96 h): enhanced hCG lethality in LNCaP cells in a greater than additive fashion

O=C(NOCC1CC1)c1ccc(F)c(F)c1Nc1ccc(I)cc1Cl [PD184352]
effect on hCG-induced ERBB1 Y1173 phosphorylation [3]: abolished
effect on radiation-induced ERBB1 Y1173 phosphorylation ([3]; PD184352 1 μM, 4 Gy, 30 min after irradiation): did not alter radiation-induced ERBB1 Y1173 phosphorylation

CN(C)CC(=O)Nc1ccc2[nH]c(=O)c3ccccc3c2c1 [PJ-34]
effect of PARP inhibition on potentiation of hCG lethality by radiation ([4]; PJ-34 5 μM, hCG 2 mU/ml, 4 Gy, 96 h): abolished the potentiation of hCG lethality by radiation

CC[C@H](C)C(=O)O[C@H]1C[C@@H](C)C=C2C=C[C@H](C)[C@H](CC[C@@H]3C[C@@H](O)CC(=O)O3)[C@H]21 [lovastatin]
JNK½ activation, combined exposure ([1]; lovastatin 0.6 μM with hCG 2 mU/ml, within 48 hours): promoted JNK½ activation
hCG induced ERK½ and AKT activation ([1]; lovastatin 0.6 μM, hCG 2 mU/ml, within 48 hours): suppressed hCG induced ERK½ and AKT activation
basal AKT activity ([1]; lovastatin 0.6 μM, within 48 hours): suppressed basal AKT activity; also recorded: reduced AKT activity
enhancement of the lethality of hCG ([4]; lovastatin 0.1-0.6 μM 30 min before hCG 1 or 2 mU/ml, 96 h): enhanced the lethality of hCG to an extent greater than was observed using a PI3K inhibitor
concentrations achievable in human plasma [6]: 0.1 to 0.6 µM

pertussis toxin
effect on hCG-induced ERK½ activation [1]: suppressed hCG-induced activation of ERK½
effect on hCG-induced ERBB1 Y1173 phosphorylation [3]: blocked

zVAD
protection from toxicity of ionizing radiation in MTT assays [7]: partially protected cells from the toxicity of ionizing radiation
effect of caspase inhibitor on lethality of lovastatin and hCG combination ([4]; LEHD 50 μM or zVAD 50 μM, lovastatin 0.6 μM, hCG 2 mU/ml, 96 h): reduced the lethality of the lovastatin and hCG combination
effect of caspase inhibitor on cell death by hCG and radiation ([4]; caspase inhibitor 50 μM, hCG 2 mU/ml, 4 Gy, 96 h): modestly blunted
